Test in all cases: DTP human tumour cell line panel, 48 h
Test [1] concerns MALME-3M melanoma.
Test [2] has as its system KM12 colon.
The test system of test [3] is SK-MEL-2 melanoma.
Test [4] deals with NCI-H23 lung.
Test [5] deals with DU-145 prostate.
In test [6] the test system is OVCAR-4 ovarian.
The test system of test [7] is RPMI-8226 leukemia.
For test [8], the system named is OVCAR-5 ovarian.
Test [9] concerns ACHN renal.
Test [10] has as its system HOP-92 NSCLC.

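Interpolation was linear, between the two tested concentrations surrounding the appropriate level; five concentrations were tested over 48 hours in 96-well plates. The concentration for 50% growth inhibition is given as GI50. TGI marks complete inhibition of growth.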

Broadly, the TGI is the concentration giving total growth inhibition. Low values mean greater sensitivity of the cells, high ones lower sensitivity of the cells. `O=C1/C(=C/c2ccccc2)CN(C(=O)/C=C/c2ccccc2)C/C1=C\c1ccccc1`: the TGI in test [1] was found to be 34.1 µM; in test [2], 12.2 µM; in test [3], 52 µM; in [4] it was 32.6 µM; in test [5], 40.9 µM; in test [6] it was 24.7 µM. For the same compound, the TGI in test [7] was 10.8 µM; in test [8] it was 45.2 µM; in test [9], 38.5 µM; in [10], 62.2 µM.

The term GI50 denotes the concentration that inhibits growth by half. Turning to `COc1cccc(/C=C2\COc3ccc(O)c(O)c3C2=O)c1OC`, the GI50 in [1] is 2.09 µM; in [2], 1.67 µM; in test [3] it was 2.35 µM; in [4], 2.9 µM; in test [5], 2.61 µM; in test [6], 2.17 µM. In addition, the GI50 was 0.547 µM in [7], 3.51 µM in [8], 3.27 µM in test [9] and 2.69 µM in [10]. The TGI in [1] was 6.11 µM; in [2], 3.92 µM; in [3], 6.34 µM; in test [4], 11.1 µM; in test [5] it was 10.4 µM; in [6], 8.47 µM. Besides, the TGI worked out at 8.7 µM in test [7], 13.6 µM in test [8], 12.2 µM in [9] and 8.81 µM in test [10].

As to `Nc1ncnc2occ(-c3ccc(NC(=O)Nc4cccc(C(F)(F)F)c4)cc3)c12`, the GI50 in test [1] is 5.74 µM; in test [2], 0.123 µM; in test [3] it was 5.39 µM; in test [4] it was 4.1 µM; in [5], 4.82 µM; in [6], 3.19 µM. In addition, the GI50 in test [7] was 4.86 µM; in [8], 5.5 µM; in test [9], 1.4 µM; in test [10], 3.43 µM. Also, the TGI in test [1] is 13.3 µM; in test [2] it was 4.51 µM; in test [3], 11.6 µM; in test [4], 13.3 µM; in [5] it was 16.1 µM; in test [6] it was 17.7 µM. Also, the TGI in test [7] was determined as 15.3 µM; in test [8] it was 13.3 µM; in test [9], 12.1 µM; in test [10] it was 10.1 µM.

Source of the values: PubChem BioAssay (NCI).
